Reference: patent publication US20020111274A1, “1-alkyl-3-[1-(substituted phenyl) benzotriazol-6-yl] uracils” (BASF Aktiengesellschaft, priority 2000, published 2002)

How the values were obtained:
Set-up in all cases: scale not given here
ABUTH Velvetleaf [1] = test: Postemergence herbicidal evaluation, ABUTH; assay type: in vivo, Abutilon theophrasti, Medic.; conditions: postemergence spray, rated about two-three weeks after treatment
How it was run: (§1)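 Postemergence spray, 40 psi nozzle, on ~2-week seedlings. Carrier: acetone/water 80/20, 1.0% methylated seed oil; dose ~0.006–0.400 kg/ha. Scored visually at 2–3 weeks.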

AMBEL Ragweed, Common [2] = test: Postemergence herbicidal evaluation, AMBEL; assay type: in vivo, Ambrosia artemisifolia, L.; conditions: postemergence spray, rated about two-three weeks after treatment
How it was run: as §1

CASOB Sicklepod [3] = test: Postemergence herbicidal evaluation, CASOB; assay type: in vivo, Cassia obtusifolia, L.; conditions: postemergence spray, rated about two-three weeks after treatment
How it was run: as §1

[4] = system: CHEAL Lambsquarters, Common; test: Postemergence herbicidal evaluation, CHEAL; assay type: in vivo, Chenopodium album, L.; conditions: postemergence spray, rated about two-three weeks after treatment
How it was run: as §1

ECHOG Barnyardgrass [5] = test: Postemergence herbicidal evaluation, ECHOG; assay type: in vivo, Echinochloa crus-galli, (L.) Beau; conditions: postemergence spray, rated about two-three weeks after treatment
How it was run: as §1

GALAP Galium [6] = test: Postemergence herbicidal evaluation, GALAP; assay type: in vivo, Galium aparine; conditions: postemergence spray, rated about two-three weeks after treatment
How it was run: as §1

[7] = system: IPOHE Morningglory, Ivyleaf; test: Postemergence herbicidal evaluation, IPOHE; assay type: in vivo, Ipomoea hederacea, (L.) Jacq.; conditions: postemergence spray, rated about two-three weeks after treatment
How it was run: as §1

SETVI Foxtail, Green [8] = test: Postemergence herbicidal evaluation, SETVI; assay type: in vivo, Setaria viridis, (L.) Beau; conditions: postemergence spray, rated about two-three weeks after treatment
How it was run: as §1

GLXMAW Soybean, Williams [9] = test: Postemergence herbicidal evaluation, GLXMAW; assay type: in vivo, Glycine max, (L.) Merr. cv Williams; conditions: postemergence spray, rated about two-three weeks after treatment
How it was run: as §1

[10] = system: TRZAWR Wheat, Winter, cv Riband; test: Postemergence herbicidal evaluation, TRZAWR; assay type: in vivo, Triticum aestivum; conditions: postemergence spray, rated about two-three weeks after treatment
How it was run: as §1

ORYSAT Rice, Tebonnet [11] = test: Postemergence herbicidal evaluation, ORYSAT; assay type: in vivo, Oryza sativa, (L.); conditions: postemergence spray, rated about two-three weeks after treatment
How it was run: as §1

ZEAMX Corn, Field [12] = test: Postemergence herbicidal evaluation, ZEAMX; assay type: in vivo, Zea mays, L. (Sammel-Bezeichnung); conditions: postemergence spray, rated about two-three weeks after treatment
How it was run: as §1

ABUTH Velvetleaf [13] = test: Preemergence herbicidal evaluation, ABUTH; assay type: in vivo, Abutilon theophrasti, Medic.; conditions: preemergence
How it was run: (§2)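 Preemergence soil spray: aqueous acetone, ~0.013–0.800 kg/ha, applied right after sowing (seed/potting-soil mix over ~1 in soil). Greenhouse, routine watering. Scored 4–5 wk post-treatment on a rating scale.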

AMBEL Ragweed, Common [14] = test: Preemergence herbicidal evaluation, AMBEL; assay type: in vivo, Ambrosia artemisifolia, L.; conditions: preemergence
How it was run: as §2

CASOB Sicklepod [15] = test: Preemergence herbicidal evaluation, CASOB; assay type: in vivo, Cassia obtusifolia, L.; conditions: preemergence
How it was run: as §2

[16] = system: CHEAL Lambsquarters, Common; test: Preemergence herbicidal evaluation, CHEAL; assay type: in vivo, Chenopodium album, L.; conditions: preemergence
How it was run: as §2

ECHOG Barnyardgrass [17] = test: Preemergence herbicidal evaluation, ECHOG; assay type: in vivo, Echinochloa crus-galli, (L.) Beau; conditions: preemergence
How it was run: as §2

GALAP Galium [18] = test: Preemergence herbicidal evaluation, GALAP; assay type: in vivo, Galium aparine; conditions: preemergence
How it was run: as §2

[19] = system: IPOHE Morningglory, Ivyleaf; test: Preemergence herbicidal evaluation, IPOHE; assay type: in vivo, Ipomoea hederacea, (L.) Jacq.; conditions: preemergence
How it was run: as §2

SETVI Foxtail, Green [20] = test: Preemergence herbicidal evaluation, SETVI; assay type: in vivo, Setaria viridis, (L.) Beau; conditions: preemergence
How it was run: as §2

GLXMAW Soybean, Williams [21] = test: Preemergence herbicidal evaluation, GLXMAW; assay type: in vivo, Glycine max, (L.) Merr. cv Williams; conditions: preemergence
How it was run: as §2

[22] = system: TRZAWR Wheat, Winter, cv Riband; test: Preemergence herbicidal evaluation, TRZAWR; assay type: in vivo, Triticum aestivum; conditions: preemergence
How it was run: as §2

ORYSAT Rice, Tebonnet [23] = test: Preemergence herbicidal evaluation, ORYSAT; assay type: in vivo, Oryza sativa, (L.); conditions: preemergence
How it was run: as §2

ZEAMX Corn, Field [24] = test: Preemergence herbicidal evaluation, ZEAMX; assay type: in vivo, Zea mays, L. (Sammel-Bezeichnung); conditions: preemergence
How it was run: as §2

## C#CCOC(=O)COc1ccc(C)c(-n2nnc3cc(F)c(-n4c(=O)cc(C(F)(F)F)n(C)c4=O)cc32)c1 [Example 36]
ABUTH Velvetleaf [1]; 0.008 kg/ha
  Postemergence herbicidal rating ABUTH: 2.0
ABUTH Velvetleaf [1]; 0.016 kg/ha
  Postemergence herbicidal rating ABUTH: 7.0
ABUTH Velvetleaf [1]; 0.032 kg/ha
  Postemergence herbicidal rating ABUTH: 9.0
ABUTH Velvetleaf [1]; 0.062 kg/ha
  Postemergence herbicidal rating ABUTH: 9.0
AMBEL Ragweed, Common [2]; 0.008 kg/ha
  Postemergence herbicidal rating AMBEL: 2.0
AMBEL Ragweed, Common [2]; 0.016 kg/ha
  Postemergence herbicidal rating AMBEL: 4.0
AMBEL Ragweed, Common [2]; 0.032 kg/ha
  Postemergence herbicidal rating AMBEL: 5.0
AMBEL Ragweed, Common [2]; 0.062 kg/ha
  Postemergence herbicidal rating AMBEL: 5.0
CASOB Sicklepod [3]; 0.008 kg/ha
  Postemergence herbicidal rating CASOB: 0.0
CASOB Sicklepod [3]; 0.016 kg/ha
  Postemergence herbicidal rating CASOB: 0.0
CASOB Sicklepod [3]; 0.032 kg/ha
  Postemergence herbicidal rating CASOB: 0.0
CASOB Sicklepod [3]; 0.062 kg/ha
  Postemergence herbicidal rating CASOB: 0.0
[4]; 0.008 kg/ha
  Postemergence herbicidal rating CHEAL: 0.0
[4]; 0.016 kg/ha
  Postemergence herbicidal rating CHEAL: 0.0
[4]; 0.032 kg/ha
  Postemergence herbicidal rating CHEAL: 2.0
[4]; 0.062 kg/ha
  Postemergence herbicidal rating CHEAL: 4.0
ECHOG Barnyardgrass [5]; 0.008 kg/ha
  Postemergence herbicidal rating ECHCG: 0.0
ECHOG Barnyardgrass [5]; 0.016 kg/ha
  Postemergence herbicidal rating ECHCG: 0.0
ECHOG Barnyardgrass [5]; 0.032 kg/ha
  Postemergence herbicidal rating ECHCG: 0.0
ECHOG Barnyardgrass [5]; 0.062 kg/ha
  Postemergence herbicidal rating ECHCG: 3.0
GALAP Galium [6]; 0.008 kg/ha
  Postemergence herbicidal rating GALAP: 0.0
GALAP Galium [6]; 0.016 kg/ha
  Postemergence herbicidal rating GALAP: 0.0
GALAP Galium [6]; 0.032 kg/ha
  Postemergence herbicidal rating GALAP: 2.0
GALAP Galium [6]; 0.062 kg/ha
  Postemergence herbicidal rating GALAP: 3.0
[7]; 0.008 kg/ha
  Postemergence herbicidal rating IPOHE: 5.0
[7]; 0.016 kg/ha
  Postemergence herbicidal rating IPOHE: 8.0
[7]; 0.032 kg/ha
  Postemergence herbicidal rating IPOHE: 9.0
[7]; 0.062 kg/ha
  Postemergence herbicidal rating IPOHE: 9.0
SETVI Foxtail, Green [8]; 0.008 kg/ha
  Postemergence herbicidal rating SETVI: 4.0
SETVI Foxtail, Green [8]; 0.016 kg/ha
  Postemergence herbicidal rating SETVI: 4.0
SETVI Foxtail, Green [8]; 0.032 kg/ha
  Postemergence herbicidal rating SETVI: 7.0
SETVI Foxtail, Green [8]; 0.062 kg/ha
  Postemergence herbicidal rating SETVI: 9.0
GLXMAW Soybean, Williams [9]; 0.008 kg/ha
  Postemergence herbicidal rating GLXMAW: 3.5
GLXMAW Soybean, Williams [9]; 0.016 kg/ha
  Postemergence herbicidal rating GLXMAW: 4.0
GLXMAW Soybean, Williams [9]; 0.032 kg/ha
  Postemergence herbicidal rating GLXMAW: 4.0
GLXMAW Soybean, Williams [9]; 0.062 kg/ha
  Postemergence herbicidal rating GLXMAW: 4.5
[10]; 0.008 kg/ha
  Postemergence herbicidal rating TRZAWR: 4.5
[10]; 0.016 kg/ha
  Postemergence herbicidal rating TRZAWR: 5.0
[10]; 0.032 kg/ha
  Postemergence herbicidal rating TRZAWR: 6.0
[10]; 0.062 kg/ha
  Postemergence herbicidal rating TRZAWR: 7.0
ORYSAT Rice, Tebonnet [11]; 0.008 kg/ha
  Postemergence herbicidal rating ORYSAT: 1.5
ORYSAT Rice, Tebonnet [11]; 0.016 kg/ha
  Postemergence herbicidal rating ORYSAT: 1.0
ORYSAT Rice, Tebonnet [11]; 0.032 kg/ha
  Postemergence herbicidal rating ORYSAT: 2.5
ORYSAT Rice, Tebonnet [11]; 0.062 kg/ha
  Postemergence herbicidal rating ORYSAT: 4.0
ZEAMX Corn, Field [12]; 0.008 kg/ha
  Postemergence herbicidal rating ZEAMX: 7.5
ZEAMX Corn, Field [12]; 0.016 kg/ha
  Postemergence herbicidal rating ZEAMX: 7.5
ZEAMX Corn, Field [12]; 0.032 kg/ha
  Postemergence herbicidal rating ZEAMX: 8.0
ZEAMX Corn, Field [12]; 0.062 kg/ha
  Postemergence herbicidal rating ZEAMX: 8.5
ABUTH Velvetleaf [13]; rate 0.016 kg/ha
  ABUTH herbicidal rating: 0.0
ABUTH Velvetleaf [13]; rate 0.032 kg/ha
  ABUTH herbicidal rating: 1.5
ABUTH Velvetleaf [13]; rate 0.062 kg/ha
  ABUTH herbicidal rating: 3.0
ABUTH Velvetleaf [13]; rate 0.125 kg/ha
  ABUTH herbicidal rating: 8.0
AMBEL Ragweed, Common [14]; rate 0.016 kg/ha
  AMBEL herbicidal rating: 0.0
AMBEL Ragweed, Common [14]; rate 0.032 kg/ha
  AMBEL herbicidal rating: 2.0
AMBEL Ragweed, Common [14]; rate 0.062 kg/ha
  AMBEL herbicidal rating: 2.0
AMBEL Ragweed, Common [14]; rate 0.125 kg/ha
  AMBEL herbicidal rating: 5.0
CASOB Sicklepod [15]; rate 0.016 kg/ha
  CASOB herbicidal rating: 0.0
CASOB Sicklepod [15]; rate 0.032 kg/ha
  CASOB herbicidal rating: 0.0
CASOB Sicklepod [15]; rate 0.062 kg/ha
  CASOB herbicidal rating: 0.0
CASOB Sicklepod [15]; rate 0.125 kg/ha
  CASOB herbicidal rating: 0.0
[16]; rate 0.016 kg/ha
  CHEAL herbicidal rating: 0.0
[16]; rate 0.032 kg/ha
  CHEAL herbicidal rating: 6.5
[16]; rate 0.062 kg/ha
  CHEAL herbicidal rating: 9.0
[16]; rate 0.125 kg/ha
  CHEAL herbicidal rating: 9.0
ECHOG Barnyardgrass [17]; rate 0.016 kg/ha
  ECHCG herbicidal rating: 0.0
ECHOG Barnyardgrass [17]; rate 0.032 kg/ha
  ECHCG herbicidal rating: 0.0
ECHOG Barnyardgrass [17]; rate 0.062 kg/ha
  ECHCG herbicidal rating: 0.0
ECHOG Barnyardgrass [17]; rate 0.125 kg/ha
  ECHCG herbicidal rating: 0.0
GALAP Galium [18]; rate 0.016 kg/ha
  GALAP herbicidal rating: 0.0
GALAP Galium [18]; rate 0.032 kg/ha
  GALAP herbicidal rating: 0.0
GALAP Galium [18]; rate 0.062 kg/ha
  GALAP herbicidal rating: 0.0
GALAP Galium [18]; rate 0.125 kg/ha
  GALAP herbicidal rating: 0.0
[19]; rate 0.016 kg/ha
  IPOHE herbicidal rating: 0.0
[19]; rate 0.032 kg/ha
  IPOHE herbicidal rating: 0.0
[19]; rate 0.062 kg/ha
  IPOHE herbicidal rating: 0.0
[19]; rate 0.125 kg/ha
  IPOHE herbicidal rating: 4.0
SETVI Foxtail, Green [20]; rate 0.016 kg/ha
  SETVI herbicidal rating: 0.0
SETVI Foxtail, Green [20]; rate 0.032 kg/ha
  SETVI herbicidal rating: 0.0
SETVI Foxtail, Green [20]; rate 0.062 kg/ha
  SETVI herbicidal rating: 0.0
SETVI Foxtail, Green [20]; rate 0.125 kg/ha
  SETVI herbicidal rating: 3.0
GLXMAW Soybean, Williams [21]; rate 0.016 kg/ha
  GLXMAW herbicidal rating: 0.0
GLXMAW Soybean, Williams [21]; rate 0.032 kg/ha
  GLXMAW herbicidal rating: 0.0
GLXMAW Soybean, Williams [21]; rate 0.062 kg/ha
  GLXMAW herbicidal rating: 0.0
GLXMAW Soybean, Williams [21]; rate 0.125 kg/ha
  GLXMAW herbicidal rating: 0.0
[22]; rate 0.016 kg/ha
  TRZAWR herbicidal rating: 0.0
[22]; rate 0.032 kg/ha
  TRZAWR herbicidal rating: 0.0
[22]; rate 0.062 kg/ha
  TRZAWR herbicidal rating: 0.0
[22]; rate 0.125 kg/ha
  TRZAWR herbicidal rating: 0.0
ORYSAT Rice, Tebonnet [23]; rate 0.016 kg/ha
  ORYSAT herbicidal rating: 0.0
ORYSAT Rice, Tebonnet [23]; rate 0.032 kg/ha
  ORYSAT herbicidal rating: 0.0
ORYSAT Rice, Tebonnet [23]; rate 0.062 kg/ha
  ORYSAT herbicidal rating: 1.0
ORYSAT Rice, Tebonnet [23]; rate 0.125 kg/ha
  ORYSAT herbicidal rating: 1.5
ZEAMX Corn, Field [24]; rate 0.016 kg/ha
  ZEAMX herbicidal rating: 0.0
ZEAMX Corn, Field [24]; rate 0.032 kg/ha
  ZEAMX herbicidal rating: 0.0
ZEAMX Corn, Field [24]; rate 0.062 kg/ha
  ZEAMX herbicidal rating: 0.0
ZEAMX Corn, Field [24]; rate 0.125 kg/ha
  ZEAMX herbicidal rating: 0.0
